# Results: ChEMBL document CHEMBL4359918, “Discovery of tissue selective liver X receptor agonists for the treatment of atherosclerosis without causing hepatic lipogenesis” (Eur J Med Chem, 2019)
# Active and inactive are the calls of the source. The rule behind the calls is not given here.
# Legend:
# [1] = molecular target: T1, LXRalpha (Oxysterols receptor LXR-alpha) (Homo sapiens, UniProt Q13133); assay: Agonist activity at human LXRalpha transfected in HEK293T cells at 10 uM incubated for 20 hrs by luciferase reporter gene assay relative to control; format: cell-based; details: HEK293T cells transfected with human LXRalpha, read-out: FC
# T1 sequence (Q13133 whole entry): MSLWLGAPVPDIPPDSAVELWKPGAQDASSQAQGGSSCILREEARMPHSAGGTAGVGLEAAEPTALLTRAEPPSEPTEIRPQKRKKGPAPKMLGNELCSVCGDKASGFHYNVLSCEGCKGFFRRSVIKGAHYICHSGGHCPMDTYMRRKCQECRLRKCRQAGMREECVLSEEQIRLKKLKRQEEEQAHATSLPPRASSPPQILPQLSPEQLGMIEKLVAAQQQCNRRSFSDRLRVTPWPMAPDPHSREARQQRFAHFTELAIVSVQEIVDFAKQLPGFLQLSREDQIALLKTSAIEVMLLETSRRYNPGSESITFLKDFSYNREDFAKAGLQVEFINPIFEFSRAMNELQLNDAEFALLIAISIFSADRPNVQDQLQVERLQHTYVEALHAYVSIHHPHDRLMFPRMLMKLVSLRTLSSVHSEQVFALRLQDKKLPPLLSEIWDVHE
# [2] = molecular target: T2, Oxysterols receptor LXR-beta (Rattus norvegicus) (UniProt Q62755); assay: Agonist activity at rat LXRbeta transfected in HEK293T cells at 10 uM incubated for 20 hrs by luciferase reporter gene assay relative to control; format: cell-based
# T2 sequence (whole entry): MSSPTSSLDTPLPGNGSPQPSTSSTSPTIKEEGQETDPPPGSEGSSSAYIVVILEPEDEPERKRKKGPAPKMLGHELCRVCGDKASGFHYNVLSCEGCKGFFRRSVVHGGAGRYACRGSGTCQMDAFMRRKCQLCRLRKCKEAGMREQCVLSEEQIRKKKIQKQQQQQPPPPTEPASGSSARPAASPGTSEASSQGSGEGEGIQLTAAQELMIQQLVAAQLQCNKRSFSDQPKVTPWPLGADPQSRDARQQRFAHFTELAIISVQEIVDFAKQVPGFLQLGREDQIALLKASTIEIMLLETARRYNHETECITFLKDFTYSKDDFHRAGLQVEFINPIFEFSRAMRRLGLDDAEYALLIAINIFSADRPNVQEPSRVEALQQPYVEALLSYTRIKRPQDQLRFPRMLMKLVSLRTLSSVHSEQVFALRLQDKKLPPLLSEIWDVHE
# HEK-293T = assay: Cytotoxicity against HEK293T cells assessed as reduction in cell viability at […] incubated for 24 hrs by MTT assay; format: cell-based; details: human
# [3] = Selectivity index, ratio of compound effect for agonist activity at human LXRalpha to compound effect for agonist activity at […]
# RAW264.7 [4] = assay: Inhibition of macrophage foam cell formation in mouse RAW264.7 cells assessed as reduction in ox-LDL induced total cholesterol level at 10 uM measured after 48 hrs; format: functional, cell-based
# RAW264.7 [5] = assay: Agonist activity at LXR in mouse RAW264.7 cells assessed as increase in ABCA1 mRNA expression at 10 uM incubated for 48 hrs by qPCR analysis; format: cell-based
# Mus musculus [6] = species on record: Mus musculus; assay: Agonist activity at LXR in C57BL/6 mouse PBMC assessed as increase in ABCA1 mRNA expression at 10 uM incubated for 48 hrs by qPCR analysis
# [7] = Agonist activity at LXR in mouse RAW264.7 cells assessed as increase in sREBP-1c mRNA expression at 10 uM incubated for 48 hrs by qPCR analysis; format: cell-based; details: raw264.7, 48 h
# PBMC = assay: Effect on LXR mRNA expression in C57BL/6 mouse PBMC at 10 uM incubated for 48 hrs by qPCR analysis; format: cell-based
# HepG2 = assay: Lipid lowering activity in human HepG2 cells assessed as decrease in OA-induced TG accumulation at 10 uM incubated for 24 hrs; format: functional, cell-based
# [8] = molecular target: Liver X receptor (Homo sapiens) (UniProt Q13133+P55055); assay: Agonist activity at LXR in human HepG2 cells assessed as increase in ABCA1 mRNA expression at 10 uM incubated for 24 hrs by qPCR analysis; format: cell-based
# 3T3-L1 [9] = assay: Anti-adipogenic activity in mouse 3T3L1 preadipocytes assessed as decrease in triglyceride accumulation; format: functional, cell-based
# 3T3-L1 [10] = assay: Anti-adipogenic activity in mouse 3T3L1 preadipocytes assessed as decrease in lipid accumulation by Oil Red O staining-based microscopic analysis; format: functional, cell-based
# [11] = Agonist activity at LXR in mouse 3T3L1 preadipocytes assessed as increase in ABCA1 mRNA expression at 10 uM by qPCR analysis; format: cell-based
# 3T3-L1 [12] = assay: Cytotoxicity against mouse 3T3L1 preadipocytes assessed as reduction in cell viability at 2 to 50 uM incubated for 24 hrs by MTT assay; format: cell-based; details: 3t3-l1, 24 h
# Mus musculus [13] = assay: Anti-atherosclerotic activity in high fat diet-induced C57BL/6 mouse model of hypercholesterolemia assessed as reduction in serum total cholesterol level at 10 to 40 mg/kg, po administered for 12 weeks; format: functional, organism-based
# Mus musculus [14] = assay: Anti-atherosclerotic activity in high fat diet-induced C57BL/6 mouse model of hypercholesterolemia assessed as reduction in ALT level at 10 to 40 mg/kg, po administered for 12 weeks; format: functional, organism-based
# Mus musculus [15] = assay: Anti-atherosclerotic activity in high fat diet-induced C57BL/6 mouse model of hypercholesterolemia assessed as reduction in hepatic total cholesterol level at 10 to 40 mg/kg, po administered for 12 weeks; format: functional, organism-based
# Mus musculus [16] = assay: Anti-atherosclerotic activity in high fat diet-induced C57BL/6 mouse model of hypercholesterolemia assessed as increase in ABCG5 mRNA expression in liver at 10 to 40 mg/kg, po administered for 12 weeks by RT-qPCR analysis; format: functional, organism-based
# Mus musculus [17] = assay: Anti-atherosclerotic activity in high fat diet-induced C57BL/6 mouse model of hypercholesterolemia assessed as decrease in SCD1 mRNA expression in liver at 10 to 40 mg/kg, po administered for 12 weeks by RT-qPCR analysis; format: functional, organism-based
# Mus musculus [18] = assay: Induction of hepatic steatosis in C57BL/6 mouse assessed as effect on serum LDL-C at 50 mg/kg/day, ig administered for 7 days; format: organism-based; details: in vivo, po, 168 h
# Mus musculus [19] = assay: Induction of hepatic steatosis in C57BL/6 mouse assessed as accumulation of serum triglyceride level at 50 mg/kg/day, ig administered for 7 days; format: organism-based; details: in vivo, po, 168 h
# RAW264.7 [20] = assay: Cytotoxicity against mouse RAW264.7 cells assessed as reduction in cell viability at 2 to 50 µM incubated for 24 hrs by MTT assay; format: cell-based; details: raw264.7, 24 h
# Mus musculus [21] = assay: Anti-atherosclerotic activity in high fat diet-induced C57BL/6 mouse model of hypercholesterolemia assessed as increase in ABCG8 mRNA expression in liver at 10 to 40 mg/kg, po administered for 12 weeks by RT-qPCR analysis; format: functional, organism-based
# Mus musculus [22] = assay: Anti-atherosclerotic activity in high fat diet-induced C57BL/6 mouse model of hypercholesterolemia assessed as increase in ABCG5 mRNA expression in ileum at 10 to 40 mg/kg, po administered for 12 weeks by RT-qPCR analysis; format: functional, organism-based
# Liver X receptor (Homo sapiens), sequence (P55055 whole entry, looked up, one chain of several): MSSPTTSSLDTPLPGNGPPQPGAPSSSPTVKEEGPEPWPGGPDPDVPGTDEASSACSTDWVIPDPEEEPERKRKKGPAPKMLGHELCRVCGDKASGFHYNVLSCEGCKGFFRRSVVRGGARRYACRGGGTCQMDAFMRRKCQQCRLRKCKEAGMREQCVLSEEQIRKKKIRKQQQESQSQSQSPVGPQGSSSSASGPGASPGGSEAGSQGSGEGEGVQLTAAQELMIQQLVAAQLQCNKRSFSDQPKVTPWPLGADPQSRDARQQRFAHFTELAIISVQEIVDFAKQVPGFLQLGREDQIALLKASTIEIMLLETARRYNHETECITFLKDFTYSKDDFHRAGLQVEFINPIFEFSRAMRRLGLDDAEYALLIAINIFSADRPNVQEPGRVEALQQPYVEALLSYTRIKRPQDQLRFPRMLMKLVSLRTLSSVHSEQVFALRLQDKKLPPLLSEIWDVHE
compound,measurement,setting,value
CC(C)C(=O)CC[C@@H](C)[C@H]1CC[C@H]2[C@@H]3C[C@H](O)[C@H]4C[C@H](O)CC[C@]4(C)[C@H]3CC[C@]12C,"fold induction at 20 h, 10 µM",[1],4.27
same,fold change (FC),[2],4.27
same,Activity,HEK-293T,Non-Toxic
same,Ratio,[3],1
same,inhibition,RAW264.7 [4],Active
same,Activity,RAW264.7 [5],Active
same,Activity,Mus musculus [6],Active
same,Activity,[7],Not Active
same,Activity,PBMC,Non-Toxic
same,Activity,HepG2,Active
same,Activity,[8],Active
same,Activity,3T3-L1 [9],inactive
same,Activity,3T3-L1 [10],inactive
same,Activity,[11],Active
same,Activity,3T3-L1 [12],Non-Toxic
same,Activity,Mus musculus [13],Active
same,Activity,Mus musculus [14],Active
same,Activity,Mus musculus [15],Active
same,Activity,Mus musculus [16],Active
same,Activity,Mus musculus [17],Active
same,Activity,Mus musculus [18],Non-Toxic
same,Activity,Mus musculus [19],Non-Toxic
same,Activity,RAW264.7 [20],Non-Toxic
same,Activity,Mus musculus [21],Active
same,Activity,Mus musculus [22],Active
